What was measured:
[1] = biological target: T1, Cholecystokinin receptor type A (Rattus norvegicus, UniProt P30551); test: Displacement of [125I]D-Tyr-Gly-[(Nle28,31)CCK-26-33] from rat CCK receptor expressed in CHO cells; format: cell-based
T1 sequence (P30551 whole entry): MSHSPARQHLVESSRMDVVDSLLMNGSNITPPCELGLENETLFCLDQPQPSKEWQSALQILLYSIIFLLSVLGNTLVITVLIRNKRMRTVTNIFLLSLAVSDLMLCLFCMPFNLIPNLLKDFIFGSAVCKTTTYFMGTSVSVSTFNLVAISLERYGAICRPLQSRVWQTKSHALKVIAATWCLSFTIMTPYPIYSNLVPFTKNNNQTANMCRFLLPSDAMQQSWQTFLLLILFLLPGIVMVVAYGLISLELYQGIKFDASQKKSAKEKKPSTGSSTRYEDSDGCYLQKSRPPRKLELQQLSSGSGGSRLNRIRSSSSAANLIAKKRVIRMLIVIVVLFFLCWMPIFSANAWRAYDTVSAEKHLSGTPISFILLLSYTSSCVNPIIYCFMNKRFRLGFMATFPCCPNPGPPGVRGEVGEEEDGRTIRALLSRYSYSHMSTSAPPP

[2] = biological target: T1, Cholecystokinin receptor type A; test: Intrinsic agonistic activity at CCK receptor in SD rat at 1 uM expressed in pancreatic acinar cell line; format: functional
[3] = biological target: T2, Cholecystokinin receptor type A (Rattus norvegicus) (UniProt P30551); test: Activity at CCK receptor in SD rat at 1 uM expressed in pancreatic acinar cell line; format: functional; settings: filed as antagonist
T2 sequence (whole entry): T1 sequence (P30551 whole entry)

| EC50 [2] | Activity [3] | SMILES | IC50 [1] |
| --- | --- | --- | --- |
| – | – | COc1ccc(N(C)C(=O)CN2C(=O)[C@H](NC(=O)Nc3cccc(C(=O)c4ccccc4)c3)C(=O)N(c3ccccc3)c3ccccc32)cc1 | 0.49 µM |
| – | – | COc1ccc(N(C)C(=O)CN2C(=O)[C@@H](NC(=O)Nc3cccc(C(=O)c4ccccc4)c3)C(=O)N(c3ccccc3)c3ccccc32)cc1 | 0.47 µM |
| 0.15 µM | – | COc1ccc(N(C(=O)CN2C(=O)[C@H](NC(=O)Nc3cccc(C(=O)c4ccccc4)c3)C(=O)N(c3ccccc3)c3ccccc32)C(C)C)cc1 | 0.061 µM |
| – | Antagonist | COc1ccc(N(C(=O)CN2C(=O)[C@@H](NC(=O)Nc3cccc(C(=O)c4ccccc4)c3)C(=O)N(c3ccccc3)c3ccccc32)C(C)C)cc1 | 0.71 µM |

Source: ChEMBL document CHEMBL1148618, “Novel benzodiazepine photoaffinity probe stereoselectively labels a site deep within the membrane-spanning domain of the cholecystokinin receptor” (J Med Chem, 2006)
